The results in this text go back to ChEMBL document CHEMBL4402522, “Exploring the new horizons of drug repurposing: A vital tool for turning hard work into smart work” (2019).

Assay [1] has as its system C6. The assay can be described thus: Antitumour activity against rat C6 cells implanted in Wistar rat assessed as reduction in reactive astrocytes induced areas of blood vessels at 25 mg/kg, ip administered on alternate days in total 3 doses and measured on day 7 co-treated with temozolomide by immunohistochemical analysis relative to control. It is filed as functional. Also on record: scale not given: the % may be the effect or the level left.

Assay [2] deals with C6. The assay can be described thus: Antitumour activity against rat C6 cells implanted in Wistar rat assessed as reduction in reactive astrocytes induced peri-tumoral areas at 25 mg/kg, ip administered on alternate days in total 3 doses and measured on day 7 co-treated with temozolomide by immunohistochemical analysis relative to control. It is filed as functional. Also on record: scale not given: the % may be the effect or the level left.

With `CC[C@H](CO)Nc1nc(NCc2ccccc2)c2ncn(C(C)C)c2n1` [SELICICLIB], the Activity in assay [1] and in assay [2] was 100% in each case.
